IC50, inhibition and half-life data for 2 compounds are collected here from patent US20250163032A1, “NOVEL MOLECULES AS INHIBITORS OF DNA DAMAGE REPAIR PATHWAY” (VRise Therapeutics, Inc., priority 2023, published 2025).

One data set has as its target USP1/UAF1 (Homo sapiens, UniProt O94782). Kind of data set: USP1/UAF 1 assay (ubiquitin-rhodamine110 fluorometric deubiquitinase assay). As to conditions: 1 nM USP1/UAF1, 150 nM Ub-Rho; read-out: Biochemical assay IC50. In kind it is biochemical.
For the next data set, the system named is MD-MBA-436. Put plainly: Cell viability assay (CTG assay). In kind it is cell-based, human. As to conditions: Homo sapiens, 7th day. The method, then: Test 5: Cell Viability Assay (CTG Assay):
Growth inhibition assays was carried out using […] supplemented media. Cells were seeded at a desired concentration of 1000-6,000 cells/well in a well plate with desired number of wells. Test compounds at a desired concentration range were added after 24 hours. Growth was assessed using the Cell Titer-Glo (CTG, Cell Signaling) for measuring reduction at 7th day after the addition of test compound chemiluminescence values were read by a plate reader. Data was be analysed and percent inhibition and/or IC50 for each test compound is calculated accordingly.

Another data set concerns NCI-H1792. Kind of data set: Cell viability assay (MTT assay), NCI-H1792. As to conditions: Homo sapiens, tested at 10 uM, 168 hours (Test-3). In kind it is cell-based. The method, then:
Test-3: Cell Viability Assay (MTT Assay):
Cell viability assay was carried out using 10% FBS supplemented media. Cells were seeded at desired density in 96 well plate and incubated in a humidified CO2 incubator. After 24 hours of plating, test compounds at desired concentration range were added to the plates and incubated in the CO2 incubator for 168 hours. Post 168 hrs treatment, 12.5 μL of MTT was added to all wells including DMSO control. MTT treated plates were incubated further for 3 hours and MTT crystals were dissolved using 125 μL of DMSO. Absorbance was read on a BIO-RAD iMark Microplate plate reader at a wavelength of 570 nm. Data was analysed and percent inhibition (IC50) due to the test compound compared to the control was calculated using GraphPad Prism.

The nature of data set [1]: Metabolic stability, mouse liver microsomes. The format is in vitro ADME. As to conditions: pH 7.4, 1 μM test item, 1 mM NADPH, 60 minutes. The method, then: (§1) Test-8: Metabolic Stability
(§2) Metabolic stability studies were conducted using mouse, rat, and human liver microsomes. The protocol for the studies with mouse and human liver microsomes (Gibco-Thermo) is provided below.
(§3) In brief, 0.25 mg protein was preincubated in phosphate buffer (pH˜7.4) for 5 min at 37° C. and then added with 1 μM test item followed by addition of 1 mM NADPH (cof actor) and incubated further over a period 60 minutes in duplicate. The reaction mixture was terminated with acetonitrile containing an internal standard and centrifuged further to analyse the test item remaining in the supernatant by LC-MS/MS at different intervals. The percent parent compound remaining was calculated in comparison with similar samples terminated at 0 minutes.
A general note: Microsomes from liver hold many membrane-bound enzymes, among them those of drug oxidation.

A short description of data set [2]: Metabolic stability, human liver microsomes. In kind it is in vitro ADME. As to conditions: pH 7.4, 1 μM test item, 1 mM NADPH, 60 minutes. The method, then:
as §1, §2, §3

USP1/UAF1, sequence (O94782 whole entry): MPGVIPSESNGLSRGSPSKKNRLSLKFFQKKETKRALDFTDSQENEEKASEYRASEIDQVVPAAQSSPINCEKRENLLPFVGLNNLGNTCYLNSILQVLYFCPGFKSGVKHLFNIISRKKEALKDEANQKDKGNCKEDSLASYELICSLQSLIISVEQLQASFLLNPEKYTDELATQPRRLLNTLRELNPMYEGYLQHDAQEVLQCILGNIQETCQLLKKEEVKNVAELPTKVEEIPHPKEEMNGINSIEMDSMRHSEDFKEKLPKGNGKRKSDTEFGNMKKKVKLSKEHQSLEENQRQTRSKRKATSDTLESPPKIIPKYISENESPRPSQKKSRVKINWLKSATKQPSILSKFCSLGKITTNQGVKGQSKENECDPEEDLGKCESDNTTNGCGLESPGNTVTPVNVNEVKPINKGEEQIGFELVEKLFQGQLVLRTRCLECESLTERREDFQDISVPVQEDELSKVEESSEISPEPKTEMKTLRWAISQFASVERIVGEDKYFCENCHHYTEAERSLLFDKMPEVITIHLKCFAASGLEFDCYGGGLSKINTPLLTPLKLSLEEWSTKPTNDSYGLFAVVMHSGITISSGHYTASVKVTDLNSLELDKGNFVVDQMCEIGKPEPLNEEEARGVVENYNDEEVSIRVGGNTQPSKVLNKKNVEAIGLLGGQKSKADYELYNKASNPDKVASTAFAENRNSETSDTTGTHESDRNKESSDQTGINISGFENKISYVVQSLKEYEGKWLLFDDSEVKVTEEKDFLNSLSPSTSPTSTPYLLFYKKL
USP1/UAF1, sequence (Q8TAF3 whole entry partner): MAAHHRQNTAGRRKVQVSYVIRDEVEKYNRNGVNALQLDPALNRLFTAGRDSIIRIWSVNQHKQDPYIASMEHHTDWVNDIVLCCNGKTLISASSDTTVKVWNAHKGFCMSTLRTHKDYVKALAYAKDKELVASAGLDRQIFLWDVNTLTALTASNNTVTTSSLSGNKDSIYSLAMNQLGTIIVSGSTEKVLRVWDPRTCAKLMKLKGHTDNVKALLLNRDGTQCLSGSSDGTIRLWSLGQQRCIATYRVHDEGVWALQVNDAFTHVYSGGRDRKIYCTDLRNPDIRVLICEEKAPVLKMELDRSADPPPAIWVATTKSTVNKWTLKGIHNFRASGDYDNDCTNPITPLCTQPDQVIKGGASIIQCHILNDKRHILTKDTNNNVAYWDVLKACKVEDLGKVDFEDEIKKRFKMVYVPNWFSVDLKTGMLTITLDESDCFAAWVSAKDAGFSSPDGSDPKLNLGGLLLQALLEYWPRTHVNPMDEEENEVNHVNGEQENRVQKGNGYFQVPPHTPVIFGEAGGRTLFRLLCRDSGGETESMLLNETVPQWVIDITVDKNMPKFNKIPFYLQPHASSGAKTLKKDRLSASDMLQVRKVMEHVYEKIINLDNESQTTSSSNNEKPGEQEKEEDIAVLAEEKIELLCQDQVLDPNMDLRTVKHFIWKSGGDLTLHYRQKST

Broadly, the IC50 is the midpoint of a concentration-inhibition curve. By inhibition is commonly meant the drop in the measured response relative to a control, in per cent. Read a high inhibition as strong suppression. Broadly, the half-life is the time in which the quantity being followed falls by half. A higher half-life goes with slow decline. In the case of `COc1ncnc(C2CC2)c1-c1nc2c(c(NCc3ccc(-c4nc(C(F)(F)F)cn4C)cc3)n1)CCC2` [Example 1, 2-(4-cyclopropyl-6-methoxypyrimidin-5-yl)-N-(4-(1-methyl-4-(trifluoromethyl)-1H-imidazol-2-yl)benzyl)-6,7-dihydro-5H-cyclopenta[d]pyrimidin-4-amine], the IC50 is 50 to 100 nM at USP1/UAF1 and less than 50 nM with MD-MBA-436. The compound further yielded an inhibition at 10 µM in the data set on NCI-H1792 of 25 to 50%. The figures for the half-life at 1 μM in data set [1] and in data set [2] were 1.49 h and 1.81 h, respectively.
With `COc1ncnc(C2CC2)c1-c1nc(NCc2ccc(-c3nc(C(F)(F)F)cn3C)cc2)c2cccn2n1` [Example 6, 2-(4-cyclopropyl-6-methoxypyrimidin-5-yl)-N-(4-(1-methyl-4-(trifluoromethyl)-1H-imidazol-2-yl)benzyl)pyrrolo[2,1-f][1,2,4]triazin-4-amine], the IC50 at USP1/UAF1 and in the data set on MD-MBA-436 was less than 50 nM in each case. Moreover, the inhibition at 10 µM in the data set with NCI-H1792 was in the range of 50 to 75%. Besides, the half-life at 1 μM was not below 0.5 h in data set [1] and not below 5 h in data set [2].
